Experimental data: ChEMBL document CHEMBL1201862, “PubChem BioAssay data set” (2004)
Active and inactive are the calls of the source.

Tests used:
[1] = target: DNA dC->dU-editing enzyme APOBEC-3A (Homo sapiens, UniProt P31941); test: Dose Response confirmation of small molecule APOBEC3A DNA Deaminase Inhibitors via a fluorescence-based single-stranded DNA deaminase assay. [Related pubchem assays (depositor defined):AID493011, AID493024]; assay type: functional
[2] = target: DNA dC->dU-editing enzyme APOBEC-3G (Homo sapiens, UniProt Q9HC16); assay type: functional;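 note: Dose-response counterscreen measuring inhibition of APOBEC3G DNA deaminase activity, run while confirming APOBEC3A inhibitors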
Chain of DNA dC->dU-editing enzyme APOBEC-3G (Q9HC16 whole entry): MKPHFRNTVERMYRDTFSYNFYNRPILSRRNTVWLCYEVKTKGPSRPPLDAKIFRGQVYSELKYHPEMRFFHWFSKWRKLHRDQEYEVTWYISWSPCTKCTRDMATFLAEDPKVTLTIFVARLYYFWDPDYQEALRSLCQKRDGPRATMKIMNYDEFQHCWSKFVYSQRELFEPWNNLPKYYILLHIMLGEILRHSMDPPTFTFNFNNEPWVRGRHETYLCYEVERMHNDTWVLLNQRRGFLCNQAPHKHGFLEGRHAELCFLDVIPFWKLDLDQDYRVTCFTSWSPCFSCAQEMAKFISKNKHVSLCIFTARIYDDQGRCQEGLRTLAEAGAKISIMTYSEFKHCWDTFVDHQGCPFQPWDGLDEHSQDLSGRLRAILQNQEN

[3] = HEK-293T cell viability reduction – luminescence, B-cell screen hits, cytotoxicity control for BCR NF-kB inhibitor project, dose response (AID 489021); assay type: functional, cell-based;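 note: HEK-293T cells carrying an NF-kB luciferase reporter; cells exposed to compound for about 14 hours before viability readout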
[4] = target: T1, Apoptotic protease-activating factor 1 (Homo sapiens, UniProt O14727); assay type: functional
T1 sequence (O14727 whole entry): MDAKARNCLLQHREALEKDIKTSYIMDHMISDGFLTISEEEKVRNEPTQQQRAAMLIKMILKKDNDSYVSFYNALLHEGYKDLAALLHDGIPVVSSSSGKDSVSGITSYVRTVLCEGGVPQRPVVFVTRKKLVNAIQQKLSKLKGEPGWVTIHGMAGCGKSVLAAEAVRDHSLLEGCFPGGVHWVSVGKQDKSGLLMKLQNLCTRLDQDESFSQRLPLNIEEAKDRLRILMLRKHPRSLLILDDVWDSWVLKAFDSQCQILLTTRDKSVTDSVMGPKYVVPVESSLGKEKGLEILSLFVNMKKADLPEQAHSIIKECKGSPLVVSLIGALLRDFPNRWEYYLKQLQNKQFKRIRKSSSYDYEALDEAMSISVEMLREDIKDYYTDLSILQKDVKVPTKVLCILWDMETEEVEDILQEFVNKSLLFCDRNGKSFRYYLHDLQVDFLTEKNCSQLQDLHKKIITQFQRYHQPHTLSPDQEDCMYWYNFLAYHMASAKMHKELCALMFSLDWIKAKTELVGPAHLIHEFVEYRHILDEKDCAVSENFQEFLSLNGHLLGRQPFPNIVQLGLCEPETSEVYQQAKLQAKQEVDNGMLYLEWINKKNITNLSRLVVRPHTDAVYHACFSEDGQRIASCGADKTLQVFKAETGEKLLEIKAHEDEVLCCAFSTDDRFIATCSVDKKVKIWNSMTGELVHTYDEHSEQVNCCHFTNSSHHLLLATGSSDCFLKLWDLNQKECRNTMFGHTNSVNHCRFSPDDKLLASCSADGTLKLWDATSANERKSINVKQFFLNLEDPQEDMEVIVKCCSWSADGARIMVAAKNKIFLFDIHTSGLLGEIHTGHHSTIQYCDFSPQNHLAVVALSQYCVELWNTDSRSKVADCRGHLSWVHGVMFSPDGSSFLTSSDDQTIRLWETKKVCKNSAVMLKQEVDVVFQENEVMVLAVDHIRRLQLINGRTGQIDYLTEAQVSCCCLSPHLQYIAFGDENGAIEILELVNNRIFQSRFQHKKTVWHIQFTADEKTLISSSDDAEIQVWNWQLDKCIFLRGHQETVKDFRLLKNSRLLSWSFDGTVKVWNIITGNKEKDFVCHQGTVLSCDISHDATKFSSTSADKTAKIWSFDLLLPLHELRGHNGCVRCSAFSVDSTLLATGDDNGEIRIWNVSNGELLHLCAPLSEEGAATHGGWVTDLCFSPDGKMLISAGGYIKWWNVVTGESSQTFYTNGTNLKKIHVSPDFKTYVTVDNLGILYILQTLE

Vero = test: cells; assay type: functional; settings: Chlorocebus sabaeus
Estrogen receptor = target: T2, Estrogen receptor (Homo sapiens, UniProt P03372);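 note: potency for inhibiting coactivator peptide recruitment to the receptor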
T2 sequence (P03372 whole entry): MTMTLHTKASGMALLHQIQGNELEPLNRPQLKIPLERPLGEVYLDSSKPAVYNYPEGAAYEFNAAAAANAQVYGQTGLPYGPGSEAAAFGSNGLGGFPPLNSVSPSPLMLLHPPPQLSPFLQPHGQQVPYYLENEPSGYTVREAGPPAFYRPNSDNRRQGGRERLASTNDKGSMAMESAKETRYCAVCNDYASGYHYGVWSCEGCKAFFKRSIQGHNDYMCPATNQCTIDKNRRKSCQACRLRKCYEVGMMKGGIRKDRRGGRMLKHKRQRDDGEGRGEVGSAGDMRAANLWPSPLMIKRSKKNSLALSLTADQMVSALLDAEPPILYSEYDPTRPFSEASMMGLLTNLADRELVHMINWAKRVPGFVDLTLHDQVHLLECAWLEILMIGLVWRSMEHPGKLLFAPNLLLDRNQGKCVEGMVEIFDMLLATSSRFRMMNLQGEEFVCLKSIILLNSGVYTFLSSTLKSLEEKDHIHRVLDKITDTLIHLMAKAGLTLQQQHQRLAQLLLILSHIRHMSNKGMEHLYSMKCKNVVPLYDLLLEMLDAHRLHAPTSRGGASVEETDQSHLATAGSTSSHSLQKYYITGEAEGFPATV

[5] = Luminescence Cell-Based Dose Response HTS to Identify Inhibitors of 5'UTR Stem-Loop Driven Prion Protein mRNA Translation in H4 Neuroglioblastoma Cells. [Related pubchem assays: 1827 (Project Summary), 1813 (Primary HTS)]; assay type: functional
[6] = target: T3, Heat shock factor protein 1 (Mus musculus, UniProt P38532); test: decrease of HSF1-responsive luciferase luminescence – cell-based, NIH3T3, dose retest, confirmation (AID 2382); assay type: functional;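 note: NIH3T3 fibroblasts with HSF1-driven luciferase reporter stressed by proteasome inhibitor MG132; luminescence from HSF1-driven luciferase expression after 8 hours of MG132 stress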
T3 sequence (P38532 whole entry): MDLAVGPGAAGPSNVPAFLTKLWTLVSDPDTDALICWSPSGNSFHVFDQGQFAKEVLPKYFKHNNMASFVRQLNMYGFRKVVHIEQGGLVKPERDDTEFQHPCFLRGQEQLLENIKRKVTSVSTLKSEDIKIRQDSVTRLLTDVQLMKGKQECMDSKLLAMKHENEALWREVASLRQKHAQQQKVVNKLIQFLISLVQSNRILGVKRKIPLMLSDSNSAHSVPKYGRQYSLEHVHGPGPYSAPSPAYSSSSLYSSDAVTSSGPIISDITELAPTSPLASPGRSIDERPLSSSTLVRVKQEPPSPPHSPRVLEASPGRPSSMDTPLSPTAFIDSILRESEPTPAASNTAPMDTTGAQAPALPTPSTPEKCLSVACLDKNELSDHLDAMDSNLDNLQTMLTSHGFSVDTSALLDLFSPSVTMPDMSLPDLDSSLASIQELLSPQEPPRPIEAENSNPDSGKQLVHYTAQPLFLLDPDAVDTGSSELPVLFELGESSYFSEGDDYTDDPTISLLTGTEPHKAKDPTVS

HEK293 [7] = test: NOD2 signaling inhibitors in MDP-stimulated cells, cell-based, uHTS, luminescence (AID 2001); assay type: functional; settings: Homo sapiens
HEK293 [8] = test: inhibition of NOD1-driven NF-kB reporter – cell-based, luminescence, uHTS, primary screen (AID 1578); assay type: functional; settings: Homo sapiens
[9] = target: Nucleotide-binding oligomerization domain-containing protein 2 (Homo sapiens, UniProt Q9HC29); test: inhibition of NOD2-driven NF-kB reporter – cell-based, luminescence, uHTS, HEK293 (AID 1566); assay type: functional
Chain of Nucleotide-binding oligomerization domain-containing protein 2 (Q9HC29 whole entry, the tested form may be a part): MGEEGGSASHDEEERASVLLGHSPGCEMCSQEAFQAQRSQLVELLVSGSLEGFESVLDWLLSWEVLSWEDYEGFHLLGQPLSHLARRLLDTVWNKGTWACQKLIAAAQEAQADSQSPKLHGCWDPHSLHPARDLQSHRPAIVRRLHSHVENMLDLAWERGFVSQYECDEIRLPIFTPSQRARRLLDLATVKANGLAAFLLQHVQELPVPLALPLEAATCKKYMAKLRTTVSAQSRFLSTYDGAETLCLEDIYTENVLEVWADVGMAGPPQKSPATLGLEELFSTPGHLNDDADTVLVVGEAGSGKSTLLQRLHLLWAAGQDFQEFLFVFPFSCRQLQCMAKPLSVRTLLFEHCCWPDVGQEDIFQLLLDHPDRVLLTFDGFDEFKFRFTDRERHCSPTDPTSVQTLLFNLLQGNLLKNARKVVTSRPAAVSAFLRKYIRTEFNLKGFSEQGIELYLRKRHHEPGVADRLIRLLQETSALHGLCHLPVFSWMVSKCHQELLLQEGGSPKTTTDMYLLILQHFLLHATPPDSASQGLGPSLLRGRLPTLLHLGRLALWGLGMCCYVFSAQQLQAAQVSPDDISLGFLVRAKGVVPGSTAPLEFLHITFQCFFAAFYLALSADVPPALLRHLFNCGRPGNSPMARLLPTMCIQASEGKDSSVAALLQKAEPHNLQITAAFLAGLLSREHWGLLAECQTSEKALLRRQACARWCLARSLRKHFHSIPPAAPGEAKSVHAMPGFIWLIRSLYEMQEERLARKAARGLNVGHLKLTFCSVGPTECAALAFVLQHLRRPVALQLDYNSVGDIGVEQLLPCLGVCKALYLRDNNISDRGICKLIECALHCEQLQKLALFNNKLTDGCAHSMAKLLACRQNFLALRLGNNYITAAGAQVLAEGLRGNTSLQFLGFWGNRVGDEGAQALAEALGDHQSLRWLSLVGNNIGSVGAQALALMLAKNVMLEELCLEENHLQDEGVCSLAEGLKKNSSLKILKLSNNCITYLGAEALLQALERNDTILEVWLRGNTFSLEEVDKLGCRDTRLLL

[10] = luciferase reporter signal suppression in cells – H4 neuroglioma cells, luminescence, dose response (AID 1990); assay type: functional, cell-based
HEK293 [11] = test: cells; assay type: functional, cell-based; settings: Homo sapiens
[12] = alpha-synuclein stem-loop luciferase translation blockers – H4 neuroglioma cells, luminescence, confirmation (AID 1988); assay type: functional, cell-based
HEK293 [13] = test: cells; assay type: functional, cell-based; settings: Homo sapiens; remark: listed apart in the source
HEK293 [14] = test: cells; assay type: functional, cell-based; settings: Homo sapiens; remark: listed apart in the source
[15] = target: Dual specificity tyrosine-phosphorylation-regulated kinase 1A (Rattus norvegicus, UniProt Q63470); assay type: biochemical, Homo sapiens
Aminopeptidase N = target: T4, Aminopeptidase N (Plasmodium falciparum FcB1/Columbia, UniProt O96935); test: malaria alanyl aminopeptidase activity blockers – biochemical, fluorogenic H-Leu-NHMec substrate, 1536-well (AID 1445); design: species or system Plasmodium falciparum 3D7, 3D7
T4 sequence (O96935 whole entry): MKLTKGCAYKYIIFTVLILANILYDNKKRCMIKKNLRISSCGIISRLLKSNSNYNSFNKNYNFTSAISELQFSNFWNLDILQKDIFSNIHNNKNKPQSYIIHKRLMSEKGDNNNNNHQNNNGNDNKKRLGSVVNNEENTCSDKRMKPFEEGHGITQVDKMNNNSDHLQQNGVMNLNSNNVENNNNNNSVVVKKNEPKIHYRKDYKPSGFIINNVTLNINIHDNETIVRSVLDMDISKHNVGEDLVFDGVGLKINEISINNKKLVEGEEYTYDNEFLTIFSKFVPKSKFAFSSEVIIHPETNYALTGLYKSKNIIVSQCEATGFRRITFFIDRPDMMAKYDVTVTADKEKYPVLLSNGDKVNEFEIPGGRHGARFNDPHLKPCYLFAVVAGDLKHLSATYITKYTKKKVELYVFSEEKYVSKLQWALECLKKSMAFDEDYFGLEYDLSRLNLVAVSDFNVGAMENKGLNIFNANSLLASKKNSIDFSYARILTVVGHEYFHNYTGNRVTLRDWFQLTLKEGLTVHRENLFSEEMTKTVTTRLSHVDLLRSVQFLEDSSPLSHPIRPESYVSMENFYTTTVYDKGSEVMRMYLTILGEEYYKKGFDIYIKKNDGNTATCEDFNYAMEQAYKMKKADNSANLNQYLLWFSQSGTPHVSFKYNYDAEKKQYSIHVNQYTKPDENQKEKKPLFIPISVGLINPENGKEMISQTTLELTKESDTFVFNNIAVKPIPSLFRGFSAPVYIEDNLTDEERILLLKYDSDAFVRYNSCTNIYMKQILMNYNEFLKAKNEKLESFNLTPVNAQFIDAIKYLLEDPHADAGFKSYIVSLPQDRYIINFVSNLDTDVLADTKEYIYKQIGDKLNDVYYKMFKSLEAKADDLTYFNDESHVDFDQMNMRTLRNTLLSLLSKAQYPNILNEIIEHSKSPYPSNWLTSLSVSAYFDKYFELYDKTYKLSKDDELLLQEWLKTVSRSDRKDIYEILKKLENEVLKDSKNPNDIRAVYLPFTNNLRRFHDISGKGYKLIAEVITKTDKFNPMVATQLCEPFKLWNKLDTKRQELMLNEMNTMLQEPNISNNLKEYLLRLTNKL

[16] = HPDE-C7 pancreatic duct cell viability loss – fluorescence, HTS (AID 430); assay type: functional, cell-based; settings: Homo sapiens
[17] = viability loss of HPDE-C7K cells – cell-based, fluorescence, HTS, primary screen (AID 431); assay type: functional; settings: Homo sapiens
INS1 = test: INS-1E survival protection against cytokine death – cell-based, luminescence, retest, dose response (AID 449756); assay type: functional; settings: Rattus norvegicus;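 note: cell death triggered by IL-1 beta plus TNF-alpha plus IFN-gamma mixture; protective hits raise ATP signal compared with cytokine alone wells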
[18] = Luminescence Cell-Based Dose Retest to Confirm Inhibitors of Cancer Stem Cells. [Related pubchem assays (depositor defined):AID2717, AID2721]; assay type: functional; settings: Homo sapiens

Chain of DNA dC->dU-editing enzyme APOBEC-3A (P31941 whole entry): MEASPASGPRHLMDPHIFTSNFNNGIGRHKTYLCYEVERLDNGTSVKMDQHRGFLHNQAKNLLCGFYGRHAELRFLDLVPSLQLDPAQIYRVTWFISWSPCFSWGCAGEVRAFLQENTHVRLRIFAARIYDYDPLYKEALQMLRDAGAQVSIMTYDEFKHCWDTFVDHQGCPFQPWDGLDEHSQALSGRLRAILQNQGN

CC(=O)Nc1nnc(SCc2ccc(C(=O)Nc3ccccc3F)cc2)s1
IC50 [1]: 5.85 µM (active) | IC50 [2]: 6.06 µM (active)

C/C(=N\Nc1nc(Nc2ccccc2)nc(N2CCOCC2)n1)c1cccs1
IC50 [3]: > 80 µM (inactive)

Cc1ccc(-c2nn3c(C)nnc3c3ccccc23)cc1S(=O)(=O)NCc1ccco1
IC50 [4]: 15.2 µM (active) | IC50 [3]: > 80 µM (inactive) | CC50 (Vero): 3.28 µM (active)

Cn1c(SCC(=O)Nc2ccc3c(c2)oc2ccccc23)nnc1-c1ccccc1
IC50 [1]: 5.4 µM (active) | IC50 [2]: 6.7 µM (active) | IC50 (Estrogen receptor): > 50 µM (not active)

COc1ccc(-c2csc3nc(-c4cccnc4)nc(N4CCC(C(N)=O)CC4)c23)cc1OC
IC50 [3]: 43.7 µM (inactive)

O=C(O)CCSc1ncnc2sc(-c3ccccc3)cc12
EC50 [5]: 9.35 µM (active) | IC50 [3]: > 80 µM (inactive) | EC50 [6]: 0.643 µM (active) | IC50 (HEK293 [7]): 3.59 µM (active) | EC50 (HEK293 [8]): 7.39 µM (active) | EC50 [9]: 4.19 µM (active) | EC50 [10]: 4.36 µM (active) | IC50 (HEK293 [11]): > 20 µM (inactive) | EC50 [12]: 4.68 µM (active) | IC50 (HEK293 [13]): > 20 µM (inactive) | IC50 (HEK293 [14]): 1.54 µM (active)

C[N+]1(CCCCCCC(=O)C=NO)CCCCCC1
IC50 [1]: 4.03 µM (active) | IC50 [2]: 3.9 µM (active)

COc1ccc2cc3cc(C(=O)NCC4CCCO4)oc3nc2c1 (centres undefined)
AC50 [15]: 7.86 µM (active) | IC50 (Aminopeptidase N): 79.3 µM (active)

COC(=O)Cc1cc(=O)oc2cc(O)ccc12
IC50 (Aminopeptidase N): 36.6 µM (active)

CC1(C)Oc2ccc3ccc(=O)oc3c2C(/C=N/CCO)=C1O
IC50 [1]: 2.47 µM (active) | IC50 [2]: 6.83 µM (active)

O=C(Nc1ccc2nn(-c3ccccc3)nc2c1)c1ccc2c(c1)OCCO2
IC50 (HEK293 [7]): 8.39 µM (active) | EC50 (HEK293 [8]): > 20 µM (inactive) | EC50 [9]: > 20 µM (inactive) | IC50 (HEK293 [11]): > 20 µM (inactive) | IC50 (HEK293 [13]): > 20 µM (inactive) | EC50 [16]: > 20 µM (not active) | EC50 [17]: > 20 µM (not active) | IC50 (HEK293 [14]): 5.31 µM (active)

COc1cc(NC(=O)c2cc3ccccc3cc2O)c(OC)cc1Cl
IC50 (HEK293 [7]): 4.06 µM (inactive) | EC50 (HEK293 [8]): 4.15 µM (active) | EC50 [9]: 5.66 µM (active) | IC50 (HEK293 [11]): > 20 µM (inactive) | AC50 (INS1): 4.03 µM (active) | AC50 [18]: 0.612 µM (active) | IC50 (HEK293 [13]): 14 µM (active) | IC50 (HEK293 [14]): > 20 µM (inactive)
